The assay addresses T1, human recombinant HDAC6 (Homo sapiens, UniProt Q9UBN7).
T1 construct: purchased Calbiochem 382180
T1 sequence (Q9UBN7 1-1215): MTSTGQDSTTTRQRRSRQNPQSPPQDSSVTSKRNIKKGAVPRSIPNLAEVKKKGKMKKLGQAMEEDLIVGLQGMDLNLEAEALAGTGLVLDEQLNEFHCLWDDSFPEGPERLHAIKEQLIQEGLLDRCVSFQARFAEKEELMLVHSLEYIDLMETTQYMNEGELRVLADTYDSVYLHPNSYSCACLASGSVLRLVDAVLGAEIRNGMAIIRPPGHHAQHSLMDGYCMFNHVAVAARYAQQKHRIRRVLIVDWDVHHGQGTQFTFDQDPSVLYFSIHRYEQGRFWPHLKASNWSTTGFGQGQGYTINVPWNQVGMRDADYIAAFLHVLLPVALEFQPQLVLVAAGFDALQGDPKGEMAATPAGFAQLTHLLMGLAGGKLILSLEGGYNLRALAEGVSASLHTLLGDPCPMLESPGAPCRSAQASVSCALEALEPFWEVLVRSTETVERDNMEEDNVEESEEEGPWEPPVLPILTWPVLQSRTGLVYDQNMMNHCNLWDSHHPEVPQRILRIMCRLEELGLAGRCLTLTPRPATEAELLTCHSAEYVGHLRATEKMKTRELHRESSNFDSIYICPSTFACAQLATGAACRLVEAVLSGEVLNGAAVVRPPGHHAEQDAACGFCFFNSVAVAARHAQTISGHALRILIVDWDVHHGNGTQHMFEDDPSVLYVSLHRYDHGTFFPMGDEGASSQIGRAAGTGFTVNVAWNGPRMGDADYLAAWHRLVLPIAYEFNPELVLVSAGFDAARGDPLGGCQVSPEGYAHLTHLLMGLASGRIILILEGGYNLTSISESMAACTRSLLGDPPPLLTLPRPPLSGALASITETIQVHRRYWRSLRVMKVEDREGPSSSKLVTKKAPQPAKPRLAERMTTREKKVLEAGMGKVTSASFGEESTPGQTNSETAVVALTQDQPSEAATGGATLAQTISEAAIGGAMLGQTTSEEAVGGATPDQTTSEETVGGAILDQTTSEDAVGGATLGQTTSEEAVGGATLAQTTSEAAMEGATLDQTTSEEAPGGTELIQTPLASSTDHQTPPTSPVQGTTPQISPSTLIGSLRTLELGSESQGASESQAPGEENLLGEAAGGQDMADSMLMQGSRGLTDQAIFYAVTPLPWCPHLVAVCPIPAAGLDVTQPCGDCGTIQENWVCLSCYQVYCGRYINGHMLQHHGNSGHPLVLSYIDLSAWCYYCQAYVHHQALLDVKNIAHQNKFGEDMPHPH
As to the kind of experiment: HDAC6 enzyme activity inhibition assay (HDAC Fluorimetric Drug Discovery Kit). The class given is biochemical. The conditions noted are these: for HDAC6 selectivity (fold): HDAC1 vs HDAC6; for IC50: same protocol as the HDAC1 enzyme activity test. Summed up: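 Human recombinant enzyme, 0.3 μg, incubated with 10 μM Fluor de Lys-SIRT1 substrate and 5-fold compound dilutions at 30° C for 60 min. Developer II added for 30 min, then fluorescence read (Ex 360/Em 460). IC50 values derived from the fluorescence data.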

What is called IC50 is the concentration needed to halve the response being measured.

Consider `O=S(=O)(CCN1CCN(CCO)CC1)N(Cc1ccc(-c2nnc(C(F)F)o2)cc1)c1ccccc1` [Compound 11717, N-(4-(5-(difluoromethyl)-1,3,4-oxadiazol-2-yl)benzyl)-2-(4-(2-hydroxyethyl)piperazin-1-yl)-N-phenylethanesulfonamide], for which the “HDAC6 selectivity (fold)” value worked out at 879 fold and the concentration for half-maximal inhibition (IC50) was determined as 114 nM.
The like results for `O=S(=O)(CCCN1CCOCC1)N(Cc1ccc(-c2nnc(C(F)F)o2)cn1)c1ccccc1` [Compound 11718, N-((5-(5-(difluoromethyl)-1,3,4-oxadiazol-2-yl)pyridin-2-yl)methyl)-3-morpholino-N-phenylpropane-1-sulfonamide] were, in that order, 1353 fold and 73.9 nM.
For `O=S(=O)(CCCN1CCC(F)(F)C1)N(Cc1ccc(-c2nnc(C(F)F)o2)cn1)c1ccccc1` [Compound 11719, N-((5-(5-(difluoromethyl)-1,3,4-oxadiazol-2-yl)pyridin-2-yl)methyl)-3-(3,3-difluoropyrrolidin-1-yl)-N-phenylpropane-1-sulfonamide], the “HDAC6 selectivity (fold)” value was determined as 1177 fold and the IC50 worked out at 84.9 nM.
For `O=S(=O)(CCCN1CCCC1)N(Cc1ccc(-c2nnc(C(F)F)o2)cn1)c1ccc(F)c(Cl)c1` [Compound 11721, N-(3-chloro-4-fluorophenyl)-N-((5-(5-(difluoromethyl)-1,3,4-oxadiazol-2-yl)pyridin-2-yl)methyl)-3-(pyrrolidin-1-yl)propane-1-sulfonamide], in that order: 4739 fold and 21.1 nM.
Regarding `O=S(=O)(CCCN1CCOCC1)N(Cc1ccc(-c2nnc(C(F)F)o2)cc1)c1ccc(F)c(Cl)c1` [Compound 11723, N-(3-chloro-4-fluorophenyl)-N-(4-(5-(difluoromethyl)-1,3,4-oxadiazol-2-yl)benzyl)-3-morpholinopropane-1-sulfonamide], the “HDAC6 selectivity (fold)” value is on record as 1272 fold and the IC50 is 78.6 nM.
Take `O=S(=O)(C1CCN([C@H]2CC[C@H](F)CC2)CC1)N(Cc1ccc(-c2nnc(C(F)F)o2)cc1)c1cccc(Cl)c1` [Compound 11725, N-(3-chlorophenyl)-N-(4-(5-(difluoromethyl)-1,3,4-oxadiazol-2-yl)benzyl)-1-((1r,4r)-4-fluorocyclohexyl)piperidine-4-sulfonamide]: the “HDAC6 selectivity (fold)” value turned out to be 412 fold and the half-inhibitory concentration (IC50) stood at 243 nM.
On to `O=S(=O)(C1CCN([C@H]2CC[C@@H](F)CC2)CC1)N(Cc1ccc(-c2nnc(C(F)F)o2)cc1)c1cccc(Cl)c1` [Compound 11726, N-(3-chlorophenyl)-N-(4-(5-(difluoromethyl)-1,3,4-oxadiazol-2-yl)benzyl)-1-((1s,4s)-4-fluorocyclohexyl)piperidine-4-sulfonamide], for which the “HDAC6 selectivity (fold)” value was 782 fold and the IC50 was 128 nM.
The like results for `CN1Cc2ccc(N(Cc3ccc(-c4nnc(C(F)F)o4)cc3)S(C)(=O)=O)cc2C1` [Compound 11729, N-(4-(5-(difluoromethyl)-1,3,4-oxadiazol-2-yl)benzyl)-N-(2-methylisoindolin-5-yl)methanesulfonamide] were, in that order, 56 fold and 1760 nM.
Turning to `CC(C)N1Cc2ccc(N(Cc3ccc(-c4nnc(C(F)F)o4)cc3)S(C)(=O)=O)cc2C1` [Compound 11730, N-(4-(5-(difluoromethyl)-1,3,4-oxadiazol-2-yl)benzyl)-N-(2-isopropylisoindolin-5-yl)methanesulfonamide], the “HDAC6 selectivity (fold)” value came out at 39 fold and the IC50 was 2530 nM.
With `CS(=O)(=O)N(Cc1ccc(-c2nnc(C(F)F)o2)cc1)c1ccc2c(c1)CN(C1COC1)C2` [Compound 11731, N-(4-(5-(difluoromethyl)-1,3,4-oxadiazol-2-yl)benzyl)-N-(2-(oxetan-3-yl)isoindolin-5-yl)methanesulfonamide], the “HDAC6 selectivity (fold)” value is 57 fold and the IC50 was found to be 1750 nM.
In the case of `CC(=O)N1Cc2ccc(N(Cc3ccc(-c4nnc(C(F)F)o4)cc3)S(C)(=O)=O)cc2C1` [Compound 11732, N-(2-acetylisoindolin-5-yl)-N-(4-(5-(difluoromethyl)-1,3,4-oxadiazol-2-yl)benzyl)methanesulfonamide], the “HDAC6 selectivity (fold)” value is given as 184 fold and the IC50 stood at 542 nM.
Consider `CN1Cc2ccc(N(Cc3ccc(-c4nnc(C(F)F)o4)cn3)S(C)(=O)=O)cc2C1` [Compound 11733, N-((5-(5-(difluoromethyl)-1,3,4-oxadiazol-2-yl)pyridin-2-yl)methyl)-N-(2-methylisoindolin-5-yl)methanesulfonamide], for which the “HDAC6 selectivity (fold)” value is reported as 203 fold and the IC50 is 490 nM.
The like results for `CC(C)N1Cc2ccc(N(Cc3ccc(-c4nnc(C(F)F)o4)cn3)S(C)(=O)=O)cc2C1` [Compound 11734, N-((5-(5-(difluoromethyl)-1,3,4-oxadiazol-2-yl)pyridin-2-yl)methyl)-N-(2-isopropylisoindolin-5-yl)methanesulfonamide] were, in that order, 132 fold and 755 nM.
For `CS(=O)(=O)N(Cc1ccc(-c2nnc(C(F)F)o2)cn1)c1ccc2c(c1)CN(C1COC1)C2` [Compound 11735, N-((5-(5-(difluoromethyl)-1,3,4-oxadiazol-2-yl)pyridin-2-yl)methyl)-N-(2-(oxetan-3-yl)isoindolin-5-yl)methanesulfonamide], in that order: 123 fold and 809 nM.
As for `CC(=O)N1Cc2ccc(N(Cc3ccc(-c4nnc(C(F)F)o4)cn3)S(C)(=O)=O)cc2C1` [Compound 11736, N-(2-acetylisoindolin-5-yl)-N-((5-(5-(difluoromethyl)-1,3,4-oxadiazol-2-yl)pyridin-2-yl)methyl)methanesulfonamide], the “HDAC6 selectivity (fold)” value was 216 fold and the IC50 stood at 461 nM.
With `CN1CCCN(CCS(=O)(=O)N(Cc2ccc(-c3nnc(C(F)F)o3)cc2)c2ccccc2)CC1` [Compound 11737, N-(4-(5-(difluoromethyl)-1,3,4-oxadiazol-2-yl)benzyl)-2-(4-methyl-1,4-diazepan-1-yl)-N-phenylethanesulfonamide], the “HDAC6 selectivity (fold)” value turned out to be 1440 fold and the IC50 turned out to be 69.4 nM.
For `O=S(=O)(CCN1CCC1)N(Cc1ccc(-c2nnc(C(F)F)o2)cc1)c1ccccc1` [Compound 11738, 2-(azetidin-1-yl)-N-(4-(5-(difluoromethyl)-1,3,4-oxadiazol-2-yl)benzyl)-N-phenylethanesulfonamide], in that order: 1466 fold and 68.2 nM.
The like results for `CS(=O)(=O)N(Cc1ccc(-c2nnc(C(F)F)o2)cc1)c1nccs1` [Compound 11739, N-(4-(5-(difluoromethyl)-1,3,4-oxadiazol-2-yl)benzyl)-N-(thiazol-2-yl)methanesulfonamide] were, in that order, 148 fold and 675 nM.
As to `CS(=O)(=O)N(Cc1ccc(-c2nnc(C(F)F)o2)cc1)c1nc2ccccc2s1` [Compound 11740, N-(benzo[d]thiazol-2-yl)-N-(4-(5-(difluoromethyl)-1,3,4-oxadiazol-2-yl)benzyl)methanesulfonamide], the “HDAC6 selectivity (fold)” value was determined as 188 fold and the IC50 came to 531 nM.

Values taken from patent US10538498B2, “1,3,4-oxadiazole sulfonamide derivative compounds as histone deacetylase 6 inhibitor, and the pharmaceutical composition comprising the same” (Chong Kun Dang Pharmaceutical Corp., priority 2015, dated 2020).
